{
  "source": "PubChem BioAssay (NCI)",
  "assay_in_all_cases": "NCI-60 cell line screen, 48 h",
  "key": {"COLO 205 colon": {"system": "COLO 205 colon"}, "MDA-N": {"system": "MDA-N"}, "CCRF-CEM leukemia": {"system": "CCRF-CEM leukemia"}, "SF-539 CNS": {"system": "SF-539 CNS"}, "SNB-19 CNS": {"system": "SNB-19 CNS"}, "KM12 colon": {"system": "KM12 colon"}, "SW-620 colon": {"system": "SW-620 colon"}, "TK-10 renal": {"system": "TK-10 renal"}, "SF-295 CNS": {"system": "SF-295 CNS"}, "A549 NSCLC": {"system": "A549 NSCLC"}, "SF-268 CNS": {"system": "SF-268 CNS"}, "NCI-H226 lung": {"system": "NCI-H226 lung"}, "SK-MEL-28 melanoma": {"system": "SK-MEL-28 melanoma"}, "RPMI-8226 leukemia": {"system": "RPMI-8226 leukemia"}, "EKVX NSCLC": {"system": "EKVX NSCLC"}, "UACC-257 melanoma": {"system": "UACC-257 melanoma"}, "IGROV1 ovarian": {"system": "IGROV1 ovarian"}, "SNB-75 CNS": {"system": "SNB-75 CNS"}, "OVCAR-4 ovarian": {"system": "OVCAR-4 ovarian"}, "786-0 renal": {"system": "786-0 renal"}, "UO-31 renal": {"system": "UO-31 renal"}, "HOP-92 NSCLC": {"system": "HOP-92 NSCLC"}, "LOX IMVI melanoma": {"system": "LOX IMVI melanoma"}, "SK-OV-3 ovarian": {"system": "SK-OV-3 ovarian"}, "PC-3 prostate": {"system": "PC-3 prostate"}, "DU-145 prostate": {"system": "DU-145 prostate"}, "OVCAR-3 ovarian": {"system": "OVCAR-3 ovarian"}, "HL-60(TB) leukemia": {"system": "HL-60(TB) leukemia"}, "HCC-2998 colon": {"system": "HCC-2998 colon"}, "HS 578T breast": {"system": "HS 578T breast"}, "MDA-MB-231 breast": {"system": "MDA-MB-231 breast"}, "OVCAR-5 ovarian": {"system": "OVCAR-5 ovarian"}, "OVCAR-8 ovarian": {"system": "OVCAR-8 ovarian"}, "K-562 leukemia": {"system": "K-562 leukemia"}, "HCT-116 colon": {"system": "HCT-116 colon"}, "RXF 393 renal": {"system": "RXF 393 renal"}, "MALME-3M melanoma": {"system": "MALME-3M melanoma"}, "NCI-H23 lung": {"system": "NCI-H23 lung"}, "SN12C renal": {"system": "SN12C renal"}, "HCT-15 colon": {"system": "HCT-15 colon"}, "NCI-H522 lung": {"system": "NCI-H522 lung"}, "CAKI-1 renal": {"system": "CAKI-1 renal"}, "NCI/ADR-RES ovarian": {"system": "NCI/ADR-RES ovarian"}, "MOLT-4 leukemia": {"system": "MOLT-4 leukemia"}, "SK-MEL-2 melanoma": {"system": "SK-MEL-2 melanoma"}, "NCI-H460 lung": {"system": "NCI-H460 lung"}, "T-47D breast": {"system": "T-47D breast"}, "MDA-MB-435": {"system": "MDA-MB-435"}, "HT29 colon": {"system": "HT29 colon"}, "SK-MEL-5 melanoma": {"system": "SK-MEL-5 melanoma"}, "BT-549 breast": {"system": "BT-549 breast"}, "M14 melanoma": {"system": "M14 melanoma"}, "HOP-62 NSCLC": {"system": "HOP-62 NSCLC"}, "SR leukemia": {"system": "SR leukemia"}, "U251 CNS": {"system": "U251 CNS"}},
  "note": "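Values below derive from 48-hour exposures of cells grown in 96-well plates, with endpoints linearly interpolated between the two concentrations bracketing the appropriate inhibition level. Definition used: TGI = concentration required for complete inhibition of growth.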",
  "data": [
    {"smiles": "COC/C=C\\[C@@]1(O)CCCC[C@@H]1CC(OC)OC", "values": [
      {"measurement": "TGI", "setting": "COLO 205 colon", "result": "> 100", "unit": "µM"},
      {"measurement": "TGI", "setting": "MDA-N", "result": "> 100", "unit": "µM"},
      {"measurement": "TGI", "setting": "CCRF-CEM leukemia", "result": "> 64.3", "unit": "µM"},
      {"measurement": "TGI", "setting": "SF-539 CNS", "result": "> 100", "unit": "µM"},
      {"measurement": "TGI", "setting": "SNB-19 CNS", "result": "> 100", "unit": "µM"},
      {"measurement": "TGI", "setting": "KM12 colon", "result": "> 100", "unit": "µM"},
      {"measurement": "TGI", "setting": "SW-620 colon", "result": "> 100", "unit": "µM"},
      {"measurement": "TGI", "setting": "TK-10 renal", "result": "> 100", "unit": "µM"},
      {"measurement": "TGI", "setting": "SF-295 CNS", "result": 97.3, "unit": "µM"},
      {"measurement": "TGI", "setting": "A549 NSCLC", "result": "> 100", "unit": "µM"},
      {"measurement": "TGI", "setting": "SF-268 CNS", "result": "> 91.9", "unit": "µM"},
      {"measurement": "TGI", "setting": "NCI-H226 lung", "result": "> 100", "unit": "µM"},
      {"measurement": "TGI", "setting": "SK-MEL-28 melanoma", "result": "> 80.6", "unit": "µM"},
      {"measurement": "TGI", "setting": "RPMI-8226 leukemia", "result": 70.9, "unit": "µM"},
      {"measurement": "TGI", "setting": "EKVX NSCLC", "result": "> 100", "unit": "µM"},
      {"measurement": "TGI", "setting": "UACC-257 melanoma", "result": "> 100", "unit": "µM"},
      {"measurement": "TGI", "setting": "IGROV1 ovarian", "result": "> 55.6", "unit": "µM"},
      {"measurement": "TGI", "setting": "SNB-75 CNS", "result": "> 100", "unit": "µM"},
      {"measurement": "TGI", "setting": "OVCAR-4 ovarian", "result": "> 76.4", "unit": "µM"},
      {"measurement": "TGI", "setting": "786-0 renal", "result": "> 100", "unit": "µM"},
      {"measurement": "TGI", "setting": "UO-31 renal", "result": "> 96.6", "unit": "µM"},
      {"measurement": "TGI", "setting": "HOP-92 NSCLC", "result": "> 100", "unit": "µM"},
      {"measurement": "TGI", "setting": "LOX IMVI melanoma", "result": 20.9, "unit": "µM"},
      {"measurement": "TGI", "setting": "SK-OV-3 ovarian", "result": "> 100", "unit": "µM"},
      {"measurement": "TGI", "setting": "PC-3 prostate", "result": "> 100", "unit": "µM"},
      {"measurement": "TGI", "setting": "DU-145 prostate", "result": "> 100", "unit": "µM"},
      {"measurement": "TGI", "setting": "OVCAR-3 ovarian", "result": "> 100", "unit": "µM"},
      {"measurement": "TGI", "setting": "HL-60(TB) leukemia", "result": "> 28.4", "unit": "µM"},
      {"measurement": "TGI", "setting": "HCC-2998 colon", "result": "> 100", "unit": "µM"},
      {"measurement": "TGI", "setting": "HS 578T breast", "result": "> 100", "unit": "µM"},
      {"measurement": "TGI", "setting": "MDA-MB-231 breast", "result": "> 100", "unit": "µM"},
      {"measurement": "TGI", "setting": "OVCAR-5 ovarian", "result": "> 100", "unit": "µM"},
      {"measurement": "TGI", "setting": "OVCAR-8 ovarian", "result": "> 85.8", "unit": "µM"},
      {"measurement": "TGI", "setting": "K-562 leukemia", "result": "> 100", "unit": "µM"},
      {"measurement": "TGI", "setting": "HCT-116 colon", "result": "> 62.7", "unit": "µM"},
      {"measurement": "TGI", "setting": "RXF 393 renal", "result": "> 92.1", "unit": "µM"},
      {"measurement": "TGI", "setting": "MALME-3M melanoma", "result": "> 100", "unit": "µM"},
      {"measurement": "TGI", "setting": "NCI-H23 lung", "result": 98.7, "unit": "µM"},
      {"measurement": "TGI", "setting": "SN12C renal", "result": 43.7, "unit": "µM"},
      {"measurement": "TGI", "setting": "HCT-15 colon", "result": "> 100", "unit": "µM"},
      {"measurement": "TGI", "setting": "NCI-H522 lung", "result": 38.4, "unit": "µM"},
      {"measurement": "TGI", "setting": "CAKI-1 renal", "result": "> 100", "unit": "µM"},
      {"measurement": "TGI", "setting": "NCI/ADR-RES ovarian", "result": "> 100", "unit": "µM"},
      {"measurement": "TGI", "setting": "MOLT-4 leukemia", "result": 31.4, "unit": "µM"},
      {"measurement": "TGI", "setting": "SK-MEL-2 melanoma", "result": "> 100", "unit": "µM"},
      {"measurement": "TGI", "setting": "NCI-H460 lung", "result": "> 90", "unit": "µM"},
      {"measurement": "TGI", "setting": "T-47D breast", "result": "> 100", "unit": "µM"},
      {"measurement": "TGI", "setting": "MDA-MB-435", "result": "> 76.1", "unit": "µM"},
      {"measurement": "TGI", "setting": "HT29 colon", "result": "> 100", "unit": "µM"},
      {"measurement": "TGI", "setting": "SK-MEL-5 melanoma", "result": "> 100", "unit": "µM"},
      {"measurement": "TGI", "setting": "BT-549 breast", "result": "> 100", "unit": "µM"},
      {"measurement": "TGI", "setting": "M14 melanoma", "result": "> 100", "unit": "µM"},
      {"measurement": "TGI", "setting": "HOP-62 NSCLC", "result": "> 100", "unit": "µM"},
      {"measurement": "TGI", "setting": "SR leukemia", "result": 98.9, "unit": "µM"},
      {"measurement": "TGI", "setting": "U251 CNS", "result": "> 100", "unit": "µM"}
    ]}
  ]
}
